The values below come from patent US12247063B2, “Cell surface modification by coating with peptide amphiphiles (PAs)” (Northwestern University, priority 2020, dated 2025).

Peptide text beside a SMILES is read from it.

One series deals with T1, VCAM-1 (Homo sapiens, UniProt P19320).
T1 sequence (P19320 25-739): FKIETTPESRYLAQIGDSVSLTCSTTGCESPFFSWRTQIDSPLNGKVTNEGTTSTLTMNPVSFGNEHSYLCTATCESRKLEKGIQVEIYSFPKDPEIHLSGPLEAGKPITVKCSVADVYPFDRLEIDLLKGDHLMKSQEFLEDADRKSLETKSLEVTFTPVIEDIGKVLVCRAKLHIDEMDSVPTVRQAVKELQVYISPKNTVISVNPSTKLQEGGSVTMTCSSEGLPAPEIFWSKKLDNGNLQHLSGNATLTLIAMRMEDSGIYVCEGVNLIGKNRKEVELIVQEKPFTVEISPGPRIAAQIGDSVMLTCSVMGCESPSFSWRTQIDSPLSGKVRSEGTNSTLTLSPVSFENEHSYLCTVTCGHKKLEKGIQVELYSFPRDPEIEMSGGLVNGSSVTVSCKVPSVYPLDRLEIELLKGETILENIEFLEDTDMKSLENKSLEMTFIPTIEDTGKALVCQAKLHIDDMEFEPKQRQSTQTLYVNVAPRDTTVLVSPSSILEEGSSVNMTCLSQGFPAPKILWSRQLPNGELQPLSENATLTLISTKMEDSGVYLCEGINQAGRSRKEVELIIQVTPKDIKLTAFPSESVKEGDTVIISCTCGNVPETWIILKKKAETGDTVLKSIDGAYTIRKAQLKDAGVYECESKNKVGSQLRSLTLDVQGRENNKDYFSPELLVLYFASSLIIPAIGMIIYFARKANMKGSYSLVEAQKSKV
The conditions noted are these: free peptide, SPR, measured from another group; cited from earlier work.

In a further series the test system is CCRF-CEM cells. The series can be described thus: PA nanofiber coating of CCRF-CEM model cells (confocal microscopy, flow cytometry). Format: cell-based. The conditions noted are these: annealed nanofibers with 1 mol % TAMRA-PA. Here is the method:
(§1) The cells for PA nanofiber coating should be prepared as a dispersion in buffer (DPBS; Invitrogen). The adherent cells such as 3T3 and C2C12 cells were dissociated using Trypsin (0.25%, Invitrogen). The cells were centrifuged down and washed using buffers to be prepared in DPBS (5×10^5 cells/15 μL/tube). Non-adherent cells such as CCRF-CEM cells or human regulatory T cells were simply washed by buffers to remove serum or other proteins which potentially interact with the PA molecules to get concentrated cell dispersion.
The 15 μL of concentrated cell dispersion in DPBS was mixed with 10 μL of PA solution in 500 μL-tube at RT. […]
(§2) All cells were stained by Calcein AM (Life Technologies) and Hoechst 33342 (Life Technologies) according to manufacturer's instructions for imaging and the flow cytometry analysis. For confocal fluorescence imaging and imaging with z-stacks, Nikon X1 Spinning Disk Confocal microscope in Center for Advanced Microscopy/Nikon Imaging Center (CAM), Northwestern University was utilized. […]
(§3) In order to quantify the coating efficiency, mean fluorescence intensity (MFI) and the viability of the cells, LSR Fortessa and Diva software (BD Biosciences) was utilized. […] The viability was calculated by dividing the number of Calcein-AM+ (living cells) by the total number of cells.

Series [1] in a line: Zeta potential measurement of PA nanofibers. Format: physicochemical. The conditions noted are these: 0.1 mM PA in DPBS. The method, then: The PA solutions were prepared with the final concentration of 0.1 mM in DPBS. Each solution was transferred to folded capillary zeta cells (Malvern). The zeta potential was measured using zetasizer Nano ZSP (Malvern).
Series [2] has as its system human regulatory T (hTreg) cells. The series can be described thus: PA nanofiber coating of human regulatory T cells (flow cytometry, confocal). Format: cell-based. The method, then:
To isolate the Treg cells, the apheresis product collected from peripheral blood was suspended in a de-clumping buffer (Miltenyi PBS/EDTA Buffer, 25% Human Serum Albumin (HSA), MgCl2, and Pulmozyme). Using CliniMACS Plus and GMP grade reagents, the CD8 and CD19 depletion and CD25+ enrichment was carried out (Miltenyi). The isolated Tregs were stimulated/expanded with Exp-Act® beads at a 4:1 (bead:cell) ratio in a TexMACS medium supplemented with 5% heat-inactivated AB serum, 1,000 IU/ml IL-2, 100 ng/ml Sirolimus (SRL: Rapamycin; Sigma Aldrich) and 1 μg/ml TGF-β (Miltenyi Biotec). The cells were then restimulated with Exp-Act® beads, at a ratio of 1:1 beads on Day 7 and 14. Further, the expanded Tregs were harvested on Day 21 and Exp-Act beads were removed on the CliniMACS Plus instrument for the nanofiber coating experiment and evaluation. Peripheral blood samples were obtained under a protocol following written informed consent approved and supervised by a Northwestern University Institutional Review Board.
as §1
(§4) The 15 μL of concentrated cell dispersion in DPBS was mixed with 10 μL of PA solution in 500 μL-tube at RT. Unless otherwise noted, the incubation time for backbone PAs and VCAMb PA is 5 minutes and 1 minute, respectively. After incubation the cell and PA mixture was transferred to a 15 mL-conical tube with 2 mL of DPBS and centrifuged down by 1,000 g for 10 minutes. The supernatant was aspirated leaving 300 μL of buffers with the cell pellet. For backbone PA, the washing step was repeated for 3 times. For further characterizations, the pellets were dissociated in 100 μL DPBS.
as §2, §3
(Flow cytometry measures light scatter and fluorescence of single cells or particles in a stream.)

The target in series [3] is T2, Recombinant Human VCAM-1/CD106 Fc chimera protein (Homo sapiens, UniProt P19320).
T2 construct: Fc (immunoglobulin Fc fusion partner); His tag (inferred from capture on anti-penta-His sensor); purchased R&D Systems
The series can be described thus: Biolayer interferometry (BLI) binding to VCAM-1 protein. The conditions noted are these: all concentrations of PA investigated (0.1 mM-100 nM). The method, then: The PA solution of each PA were prepared with the concentration 1 mM after annealing and serial dilutions were made for 100, 10, 1 μM, 100, 10, 1 nM solutions using DPBS. Recombinant Human VCAM-1/CD106 Fc chimera protein (R&D Systems) was purchased and the stock solution of 100 μg/mL was prepared according to the manufacturer's instructions and stored in −80° C. until use. For measurement, the protein solution was diluted to […]. The binding responses were measured and recorded by BLItz Bio-Layer Interferometer in Keck Biophysics Facility, Chicago campus, Northwestern University. The biosensor utilized for this study was Anti-Penta-HIS Biosensors (ForteBio). The measuring protocol is as follows: 30 seconds of initial baseline measurement, 600 seconds of protein (VCAM-1) immobilization, 30 seconds of base line measurement, 300 seconds of association measurement, 300 seconds of dissociation measurement. The dissociation constant was calculated by BLItz Pro Software.
Background: In BLI a coated tip is dipped into the sample, and binding shifts an interference pattern.

For series [4], the system named is primary murine splenocytes. The experiment in a line: Coating of murine primary splenocytes (confocal, flow cytometry). Format: cell-based. The text has this:
(§5) To further investigate the coating efficiency of the targeting PAs, murine primary splenocytes were isolated, coated with TAMRA-labeled ICAM-1 targeting PA, and visualized using confocal microscopy. […] Flow cytometry was subsequently performed to compare coating efficiency of ICAM-1 and VCAM-1 targeting PAs. […] This can be visualized through both light microscopy (top) and processed images highlighting bound cell edges (bottom).

The nature of series [5]: Viability of PA-coated hTreg cells (Calcein AM, flow cytometry). Format: cell-based, human. The conditions noted are these: human, human regulatory T (hTreg) cells. Here is the method: as §4
(§6) All cells were stained by Calcein AM (Life Technologies) and Hoechst 33342 (Life Technologies) according to manufacturer's instructions for imaging and the flow cytometry analysis. For confocal fluorescence imaging and imaging with z-stacks, Nikon X1 Spinning Disk Confocal microscope in Center for Advanced Microscopy/Nikon Imaging Center (CAM), Northwestern University was utilized. For 3D reconstruction of z-stacks of confocal images, IMARIS software (Oxford Instruments) in the same center was utilized.
(§7) In order to quantify the coating efficiency, mean fluorescence intensity (MFI) and the viability of the cells, LSR Fortessa and Diva software (BD Biosciences) was utilized. The coating efficiency was obtained from calculating the number of TAMRA+ cells divided by the total number of cells (Hoechst+ cells). The MFI value was obtained from living cells. The viability was calculated by dividing the number of Calcein-AM+ (living cells) by the total number of cells.

A further series deals with ICAM surface (Homo sapiens, UniProt P05362). The experiment in a line: Microfluidic flow retention of coated lymphocytes on protein surface. Format: cell-based.
Text: as §5

The test system of series [6] is human regulatory T (hTreg) cells. The series can be described thus: Viability of PA-coated hTreg cells (Calcein AM, flow cytometry). Format: cell-based. The conditions noted are these: 500 μM coating solution. Here is the method: as §4, §6, §7

Usually Kd stands for the equilibrium constant for the complex coming apart. A word on the viability: it is the share of living cells, or the viability signal relative to a control.

T2 sequence (P19320 with tags, fused parts or gaps limits assumed): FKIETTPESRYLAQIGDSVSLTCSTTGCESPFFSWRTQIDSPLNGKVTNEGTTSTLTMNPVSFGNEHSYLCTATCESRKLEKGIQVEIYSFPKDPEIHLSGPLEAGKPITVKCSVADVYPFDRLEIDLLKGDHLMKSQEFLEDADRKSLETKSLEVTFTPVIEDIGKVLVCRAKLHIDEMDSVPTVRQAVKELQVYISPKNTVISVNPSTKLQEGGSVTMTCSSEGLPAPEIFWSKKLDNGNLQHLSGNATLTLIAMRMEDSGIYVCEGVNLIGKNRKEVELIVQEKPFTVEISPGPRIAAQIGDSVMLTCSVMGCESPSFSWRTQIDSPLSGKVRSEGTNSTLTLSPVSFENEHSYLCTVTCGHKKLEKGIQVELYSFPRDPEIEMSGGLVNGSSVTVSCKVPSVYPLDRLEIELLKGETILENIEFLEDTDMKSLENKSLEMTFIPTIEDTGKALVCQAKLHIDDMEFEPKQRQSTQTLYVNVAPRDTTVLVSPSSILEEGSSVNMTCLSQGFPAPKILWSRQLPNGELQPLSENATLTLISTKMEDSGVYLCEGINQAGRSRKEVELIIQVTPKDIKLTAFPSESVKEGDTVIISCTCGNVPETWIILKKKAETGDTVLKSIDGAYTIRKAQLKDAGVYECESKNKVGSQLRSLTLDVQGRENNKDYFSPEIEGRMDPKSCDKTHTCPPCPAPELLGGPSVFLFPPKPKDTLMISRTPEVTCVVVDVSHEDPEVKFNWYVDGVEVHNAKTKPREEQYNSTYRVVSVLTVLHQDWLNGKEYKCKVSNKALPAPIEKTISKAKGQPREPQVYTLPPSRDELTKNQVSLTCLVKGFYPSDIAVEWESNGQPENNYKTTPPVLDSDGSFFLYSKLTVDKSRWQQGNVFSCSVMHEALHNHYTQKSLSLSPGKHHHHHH
Sequence of ICAM surface (P05362 28-532): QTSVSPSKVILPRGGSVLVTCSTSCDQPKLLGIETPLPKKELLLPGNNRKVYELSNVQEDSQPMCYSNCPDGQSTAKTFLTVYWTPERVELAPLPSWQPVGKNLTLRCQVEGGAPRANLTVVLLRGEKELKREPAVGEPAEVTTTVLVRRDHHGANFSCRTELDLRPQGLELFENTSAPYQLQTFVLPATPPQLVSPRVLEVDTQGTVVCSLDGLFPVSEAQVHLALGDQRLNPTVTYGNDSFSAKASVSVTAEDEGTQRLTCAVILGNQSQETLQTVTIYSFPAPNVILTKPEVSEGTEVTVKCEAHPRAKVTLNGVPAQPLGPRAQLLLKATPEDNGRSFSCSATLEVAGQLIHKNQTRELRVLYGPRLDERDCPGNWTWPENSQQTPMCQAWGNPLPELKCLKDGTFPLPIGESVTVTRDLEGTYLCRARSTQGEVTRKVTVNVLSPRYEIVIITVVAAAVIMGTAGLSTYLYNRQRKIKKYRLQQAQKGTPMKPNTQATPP

VHPKQHR [VHPKQHR (SEQ ID NO: 11)]: the Kd on VCAM-1 is 39.6 ± 1.78 nM.

Turning to “C16-V4A2E3 (SEQ ID NO: 12) (VVVVAAEEE; HELM PEPTIDE1{[CCCCCCCCCCCCCCCC(=O)[*:2]].V.V.V.V.A.A.E.E.E.[am]}$$$$V2.0; SMILES CCCCCCCCCCCCCCCC(=O)N[C@H](C(=O)N[C@H](C(=O)N[C@H](C(=O)N[C@H](C(=O)N[C@@H](C)C(=O)N[C@@H](C)C(=O)N[C@@H](CCC(=O)O)C(=O)N[C@@H](CCC(=O)O)C(=O)N[C@@H](CCC(=O)O)C(N)=O)C(C)C)C(C)C)C(C)C)C(C)C) [backbone PA candidate with V4A2 β-sheet region]”, the “coverage of the cell surface by nanofibers” value in the series on CCRF-CEM cells is given as “only could partially cover the cell surface”.

Take “C16-V3A3E3GSGQHPHVK (SEQ ID NO: 17) (VVVAAAEEEGSGQHPHVK; HELM PEPTIDE1{[CCCCCCCCCCCCCCCC(=O)[*:2]].V.V.V.A.A.A.E.E.E.G.S.G.Q.H.P.H.V.K.[am]}$$$$V2.0; SMILES CCCCCCCCCCCCCCCC(=O)N[C@H](C(=O)N[C@H](C(=O)N[C@H](C(=O)N[C@@H](C)C(=O)N[C@@H](C)C(=O)N[C@@H](C)C(=O)N[C@@H](CCC(=O)O)C(=O)N[C@@H](CCC(=O)O)C(=O)N[C@@H](CCC(=O)O)C(=O)NCC(=O)N[C@@H](CO)C(=O)NCC(=O)N[C@@H](CCC(N)=O)C(=O)N[C@@H](Cc1c[nH]cn1)C(=O)N1CCC[C@H]1C(=O)N[C@@H](Cc1c[nH]cn1)C(=O)N[C@H](C(=O)N[C@@H](CCCCN)C(N)=O)C(C)C)C(C)C)C(C)C)C(C)C) [VCAMb-scr PA]”: the zeta potential in series [1] came to 6.313±0.8632 mV. The “coating behavior on hTreg cells” value in [2] (physiological buffer) was “the majority of the cells were not coated by the fibers”. The “association with VCAM-1 protein in BLI” value in series [3] is “negligible binding”.

Consider `CCCCCCCCCCCCCCCC(=O)N[C@H](C(=O)N[C@H](C(=O)N[C@H](C(=O)N[C@@H](C)C(=O)N[C@@H](C)C(=O)N[C@@H](C)C(=O)N[C@@H](CCC(=O)O)C(=O)N[C@@H](CCC(=O)O)C(=O)N[C@@H](CCC(=O)O)C(=O)NCC(=O)N[C@@H](CO)C(=O)NCC(=O)N[C@H](C(=O)N[C@@H](Cc1c[nH]cn1)C(=O)N1CCC[C@H]1C(=O)N[C@@H](CCCCN)C(=O)N[C@@H](CCC(N)=O)C(=O)N[C@@H](Cc1c[nH]cn1)C(N)=O)C(C)C)C(C)C)C(C)C)C(C)C` [VCAMb PA, C16-V3A3E3GSGVHPKQH (SEQ ID NO: 14)] (HELM PEPTIDE1{[CCCCCCCCCCCCCCCC(=O)[*:2]].V.V.V.A.A.A.E.E.E.G.S.G.V.H.P.K.Q.H.[am]}$$$$V2.0), for which the zeta potential in series [1] was determined as 21.4±3.703 mV. Also, the “difference in coating efficiency between VCAM-1 and ICAM-1 targeting PA” value in series [4] is recorded as “little difference”. The coating efficiency in series [2] (PA in the range of 125-500 μM) is ≥ 95%; in [2] (coated within 1 minute at room temperature) it was ≥ 94.5%. In addition, in series [2] (from coating efficiency and peak shifting), the “minimal concentration of stable coating” value worked out at 125 µM. Further, the viability at 1 min, 125 µM in [5] (125 μM PA) was 85.2 ± 5.3%. Further, in [5] (250 μM PA), the viability at 1 min, 250 µM was 82.6 ± 7.45%. In addition, the viability at 1 min, 500 µM in [5] (500 μM PA) was 82.53 ± 0.61%. Besides, the “non-specific interactions of coated lymphocytes with off-target protein” value at ICAM surface is “minimal”. In [3], the “association with VCAM-1 protein in BLI” value is “clear association”.

For the molecule `CCCCCCCCCCCCCCCC(=O)N[C@H](C(=O)N[C@H](C(=O)N[C@H](C(=O)N[C@@H](C)C(=O)N[C@@H](C)C(=O)N[C@@H](C)C(=O)N[C@@H](CCC(=O)O)C(=O)N[C@@H](CCC(=O)O)C(=O)N[C@@H](CCC(=O)O)C(N)=O)C(C)C)C(C)C)C(C)C` [backbone PA, C16-V3A3E3 (SEQ ID NO: 5)] (HELM PEPTIDE1{[CCCCCCCCCCCCCCCC(=O)[*:2]].V.V.V.A.A.A.E.E.E.[am]}$$$$V2.0), the “viability of coated cells” value in series [6] is on record as “high viability”.
